Tests used:
[1] = target: T1, 5-HT5A (Homo sapiens, UniProt P47898); experiment: Radioligand binding competition dose-response (Euroscreen), 5-HT5A; details: dose-response study, maximal concentration 10 µM, [3H]LSD
T1 construct: Euroscreen FAST (contract assay)
Protocol: (§1) This study included binding assays (87 GPCR targets), measured as % of binding inhibition of a reference radioligand, as well as uptake and enzyme assays (19 targets), the latter measured as % inhibition of control enzyme activity. […] It was performed by radioligand binding competition by Euroscreen (Euroscreen FAST, Belgium). The following nanomolar concentrations were tested in duplicate: 0.001, 0.01, 0.1, 1, 10, 100, 1000, 10,000. Dose–response curves were fitted with the least squares method. IC50 results are shown as pIC50, corresponding to the negative log10 of IC50 in molar.

[2] = target: Ca^2+ channel, vs; experiment: Radioligand binding competition dose-response (Euroscreen), Ca2+ channel verapamil site
Protocol: as §1

[3] = target: 5-HT2A (Homo sapiens, UniProt P28223); experiment: biochemical; details: read-out: %Binding inhibition at 10 µM
Protocol: as §1

[4] = target: T2, DAT (Homo sapiens, UniProt Q01959); experiment: Radioligand binding competition dose-response (Euroscreen), dopamine transporter; details: dose-response study, maximal concentration 10 µM, [3H]WIN 35,428; read-out: %Binding inhibition at 10 µM
T2 construct: Euroscreen FAST (contract assay)
Protocol: as §1

[5] = target: Ca^2+ channel, ds; experiment: Radioligand binding competition dose-response (Euroscreen), Ca2+ channel diltiazem site
Protocol: as §1

T2 sequence (Q01959 whole entry, species assumed): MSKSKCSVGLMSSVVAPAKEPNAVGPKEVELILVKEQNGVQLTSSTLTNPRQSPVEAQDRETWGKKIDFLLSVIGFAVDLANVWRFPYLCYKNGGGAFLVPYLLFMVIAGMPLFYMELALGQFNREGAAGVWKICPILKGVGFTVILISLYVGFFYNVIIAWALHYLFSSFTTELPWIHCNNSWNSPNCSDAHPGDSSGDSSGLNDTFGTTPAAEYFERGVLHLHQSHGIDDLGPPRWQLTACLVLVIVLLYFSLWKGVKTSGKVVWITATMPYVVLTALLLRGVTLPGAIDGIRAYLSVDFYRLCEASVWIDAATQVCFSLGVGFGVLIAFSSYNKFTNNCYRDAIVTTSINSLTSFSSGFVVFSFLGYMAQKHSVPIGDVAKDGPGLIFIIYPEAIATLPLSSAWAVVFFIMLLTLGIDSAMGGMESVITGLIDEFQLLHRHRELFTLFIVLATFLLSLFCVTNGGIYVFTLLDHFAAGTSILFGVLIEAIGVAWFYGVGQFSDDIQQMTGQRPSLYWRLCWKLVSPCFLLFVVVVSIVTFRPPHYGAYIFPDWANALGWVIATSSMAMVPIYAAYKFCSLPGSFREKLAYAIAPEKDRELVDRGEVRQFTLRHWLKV
T1 sequence (P47898 whole entry, species assumed): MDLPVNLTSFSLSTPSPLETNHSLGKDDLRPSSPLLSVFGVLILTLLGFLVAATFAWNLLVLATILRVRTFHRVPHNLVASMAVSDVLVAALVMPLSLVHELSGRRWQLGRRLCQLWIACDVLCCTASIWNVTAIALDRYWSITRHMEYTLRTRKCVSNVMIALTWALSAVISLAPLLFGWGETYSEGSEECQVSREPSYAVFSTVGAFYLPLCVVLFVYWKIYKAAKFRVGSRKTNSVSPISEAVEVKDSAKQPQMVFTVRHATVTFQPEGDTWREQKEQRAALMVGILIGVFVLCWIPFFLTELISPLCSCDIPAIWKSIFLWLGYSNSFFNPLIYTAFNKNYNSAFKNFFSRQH
Chain of 5-HT2A (P28223 whole entry, species assumed): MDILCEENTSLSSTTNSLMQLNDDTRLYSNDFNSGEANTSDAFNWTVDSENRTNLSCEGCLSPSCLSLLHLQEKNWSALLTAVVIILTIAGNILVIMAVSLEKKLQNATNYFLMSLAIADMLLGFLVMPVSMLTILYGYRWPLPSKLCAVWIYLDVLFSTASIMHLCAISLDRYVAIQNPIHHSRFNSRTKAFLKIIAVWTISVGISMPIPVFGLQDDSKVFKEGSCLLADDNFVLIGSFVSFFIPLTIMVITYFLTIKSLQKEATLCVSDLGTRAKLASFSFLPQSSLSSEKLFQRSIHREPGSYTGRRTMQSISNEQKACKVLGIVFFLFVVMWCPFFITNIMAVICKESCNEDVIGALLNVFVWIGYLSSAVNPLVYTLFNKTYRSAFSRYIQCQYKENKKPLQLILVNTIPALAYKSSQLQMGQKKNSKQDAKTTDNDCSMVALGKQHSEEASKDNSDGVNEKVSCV

In the case of `CSc1ccc2c(c1)C(N1CCN(C)CC1)Cc1ccccc1S2` (stereo not shown) [Methiothepin], the “%Binding inhibition at 10 µM” value [1] is reported as 101.21%.
`COc1ccc(CCN(C)CCCC(C#N)(c2cc(OC)c(OC)c(OC)c2)C(C)C)cc1OC` (stereo not shown) [Methoxyverapamil] was tested, and the pIC50 ([2]; [3H]D888 competition) was 6.56 and the “%Binding inhibition at 10 µM” value ([2]; dose-response study, maximal concentration 10 µM, [3H]D888) was 112.06%.
`O=C(c1ccc(F)cc1)C1CCN(CCn2c(=O)[nH]c3ccccc3c2=O)CC1` [Ketanserin] was tested, and the inhibition at 10 µM [3] was 103%.
Work on `Fc1ccc(C(OCCN2CCN(CCCc3ccccc3)CC2)c2ccc(F)cc2)cc1` [GBR 12909] yielded an inhibition at 10 µM [4] of 104%.
With `COc1ccc([C@@H]2Sc3ccccc3N(CCN(C)C)C(=O)[C@@H]2OC(C)=O)cc1` [Diltiazem] the pIC50 ([5]; [3H]diltiazem competition) was 4.79 and the “%Binding inhibition at 10 µM” value ([5]; dose-response study, maximal concentration 10 µM, [3H]diltiazem) was 116.63%.

Source: PMC8654833 (Scientific Reports, 2021)
